In US20230149383A1, “QUINOLINE COMPOUNDS FOR TREATING LUNG, LIVER, AND KIDNEY DISEASES, DISORDERS, OR CONDITIONS” (Aldeyra Therapeutics, Inc., priority 2020, published 2023):

Tested on: human precision cut liver slices (PCLS)
Assay: Alcoholic liver injury model in precision-cut liver slices (PCLS)
Format: cell-based
Excerpt: Alcohol abuse results in liver injury, including accumulation of RASP and an increase in inflammation. It is known to cause abnormalities in liver structure and function, including fatty liver, apoptosis, necrosis, fibrosis, and cirrhosis. In order to investigate the utility of the quinoline compounds described herein for reduction of RASP and/or treating liver and associated inflammatory disorders, we employed a known in vitro culture model that employs precision-cut liver slices (PCLS) to measure alcohol-induced liver injury. For this experiment, we used a liver sample donated from a […] with fibrosis. This experiment may also be performed on rat PCLS (procedure provided below). The model is described, for example in Klassen, L. W. et al., Biochemical Pharmacology 76 (2008), 426-436. In this model, PCLS retains excellent viability as determined by lactate dehydrogenase and adenosine triphosphate (ATP) levels over a 96-h period of incubation. The major enzymes of ethanol detoxification (alcohol dehydrogenase, aldehyde dehydrogenase, and cytochrome P4502E1), remain active and PCLS readily metabolizes ethanol and produces acetaldehyde. […] These PCLS secrete albumin, and albumin secretion was decreased by ethanol treatment. All of these impairments are reversed following the addition of 4-methylpyrazole, which is an inhibitor of ethanol metabolism. Therefore, this model system appears to mimic the ethanol-induced changes in the liver that have been previously reported in human and animal studies, and appears to be a useful model for the study of alcoholic liver disease.
Materials and Methods. For human PCLS studies, slices were cut as described below and incubated with conditions below for 24, 48, or 72 hours. Media were changed daily. • Control Media • 25 mM Ethanol Media. • Control Media+10 μM compound I-1 (7 μl of the 5 mg/ml I-1 solution in 1.7 ml) • Ethanol Media+10 μM compound I-1
Incubation of slices with ethanol is performed as follows. Following pre-incubation with WE, slices are incubated with media only (control), media+25 mM ethanol (ethanol), media+25 mM ethanol+0.50 mM 4-methylpyrazole as an optional positive control (ethanol +4-MP), media+0.50 mM 4-methylpyrazole (control+4-MP), control media+test compound, or ethanol media+test compound. The addition of 4-MP may be used in these studies as it is a general inhibitor of ethanol metabolism. The slices are placed in the Dynamic Organ Culture incubator and cultured at 37 C for up to 96 h, and every 24 h the appropriate media is replenished. In order to determine the concentration of ethanol and acetaldehyde in the media, the supernatant is analyzed using headspace gas chromatography.
Viability assays are performed as follows. Slice viability is determined by measuring adenosine triphosphate (ATP) and lactate dehydrogenase (LDH) levels. For the ATP assay, slices are harvested at the appropriate times, placed into 70% ethanol/2 mM EDTA, flash frozen, and stored at −70 C until assayed. Samples are thawed on ice, sonicated, and diluted in 0.1 M Tris-HCl/2 mM EDTA prior to use in a standard ATP assay kit.
For LDH determination, supernatant is collected and frozen at −70 C. The slice is solubilized in WE containing 2% Triton X-100 and LDH determined using a cytotoxicity detection kit (LDH) (e.g., available from Roche Applied Science, Penzberg, Germany). The absorbance of the samples is measured at 490 nm. All protein concentrations from the slices are determined using a BCA protein assay kit. To calculate the % Cytotoxicity at subsequent 24 h time points, the LDH in the media is divided by the total LDH in the PCLS and multiplied by 100.
Triglyceride analysis is performed as follows. At indicated time points, supernatant is removed and slices are washed in PBS (pH 7.4). Slices are placed in PBS containing 0.5% Triton-X100, sonicated, and the equivalent of […] of protein assayed for triglycerides using the serum triglyceride kit. […]

SMILES: CC(C)(O)c1nc2ccccc2cc1N [I-1]
- overall effect on cellular stress and toxicity in response to ethanol: acts as a chemoprotectant to reduce cellular stress and toxicity
- triglyceride levels (10 μM I-1 + 25 mM ethanol, 24, 48, 72 h): significantly decreased
- acetaldehyde levels (10 μM I-1, 24, 48, 72 h): appear to be decreased
- ATP levels (10 μM I-1, 24 and 48 hours): remain constant
- ATP levels (10 μM I-1, 72 hours): increase
- cytotoxicity (LDH) levels (ethanol treated + 10 μM I-1): continued to drop
